From PubChem BioAssay (NCI)
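Cultured in 96-well plates, cells were exposed to test compound for 48 hours across five concentrations. TGI: concentration producing complete growth inhibition.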

Tests used:
Assay in all cases: growth of human tumour cells (NCI), 48 h
786-0 renal = test system: 786-0 renal
A498 renal = test system: A498 renal
A549 NSCLC = test system: A549 NSCLC
ACHN renal = test system: ACHN renal
BT-549 breast = test system: BT-549 breast
CAKI-1 renal = test system: CAKI-1 renal
CCRF-CEM leukemia = test system: CCRF-CEM leukemia
COLO 205 colon = test system: COLO 205 colon
DU-145 prostate = test system: DU-145 prostate
EKVX NSCLC = test system: EKVX NSCLC
HCC-2998 colon = test system: HCC-2998 colon
HCT-116 colon = test system: HCT-116 colon
HCT-15 colon = test system: HCT-15 colon
HL-60(TB) leukemia = test system: HL-60(TB) leukemia
HOP-62 NSCLC = test system: HOP-62 NSCLC
HOP-92 NSCLC = test system: HOP-92 NSCLC
HS 578T breast = test system: HS 578T breast
HT29 colon = test system: HT29 colon
IGROV1 ovarian = test system: IGROV1 ovarian
K-562 leukemia = test system: K-562 leukemia
KM12 colon = test system: KM12 colon
LOX IMVI melanoma = test system: LOX IMVI melanoma
M14 melanoma = test system: M14 melanoma
MALME-3M melanoma = test system: MALME-3M melanoma
MCF7 breast = test system: MCF7 breast
MDA-MB-231 breast = test system: MDA-MB-231 breast
MDA-MB-435 = test system: MDA-MB-435
MDA-N = test system: MDA-N
MOLT-4 leukemia = test system: MOLT-4 leukemia
NCI-H226 lung = test system: NCI-H226 lung
NCI-H23 lung = test system: NCI-H23 lung
NCI-H460 lung = test system: NCI-H460 lung
NCI-H522 lung = test system: NCI-H522 lung
NCI/ADR-RES ovarian = test system: NCI/ADR-RES ovarian
OVCAR-3 ovarian = test system: OVCAR-3 ovarian
OVCAR-4 ovarian = test system: OVCAR-4 ovarian
OVCAR-5 ovarian = test system: OVCAR-5 ovarian
OVCAR-8 ovarian = test system: OVCAR-8 ovarian
PC-3 prostate = test system: PC-3 prostate
RPMI-8226 leukemia = test system: RPMI-8226 leukemia
SF-268 CNS = test system: SF-268 CNS
SF-295 CNS = test system: SF-295 CNS
SF-539 CNS = test system: SF-539 CNS
SK-MEL-2 melanoma = test system: SK-MEL-2 melanoma
SK-MEL-5 melanoma = test system: SK-MEL-5 melanoma
SK-OV-3 ovarian = test system: SK-OV-3 ovarian
SN12C renal = test system: SN12C renal
SNB-19 CNS = test system: SNB-19 CNS
SNB-75 CNS = test system: SNB-75 CNS
SR leukemia = test system: SR leukemia
SW-620 colon = test system: SW-620 colon
T-47D breast = test system: T-47D breast
TK-10 renal = test system: TK-10 renal
U251 CNS = test system: U251 CNS
UACC-257 melanoma = test system: UACC-257 melanoma
UACC-62 melanoma = test system: UACC-62 melanoma
UO-31 renal = test system: UO-31 renal
SK-MEL-28 melanoma = test system: SK-MEL-28 melanoma

## CN1CCN(CC(=O)N2CCCn3c2nc2ccccc2c3=O)CC1
786-0 renal
  TGI: > 100 µM
A498 renal
  TGI: > 100 µM
A549 NSCLC
  TGI: > 100 µM
ACHN renal
  TGI: > 100 µM
BT-549 breast
  TGI: > 100 µM
CAKI-1 renal
  TGI: > 100 µM
CCRF-CEM leukemia
  TGI: > 100 µM
COLO 205 colon
  TGI: > 100 µM
DU-145 prostate
  TGI: > 100 µM
EKVX NSCLC
  TGI: > 100 µM
HCC-2998 colon
  TGI: > 100 µM
HCT-116 colon
  TGI: > 100 µM
HCT-15 colon
  TGI: > 100 µM
HL-60(TB) leukemia
  TGI: > 100 µM
HOP-62 NSCLC
  TGI: > 100 µM
HOP-92 NSCLC
  TGI: > 100 µM
HS 578T breast
  TGI: > 100 µM
HT29 colon
  TGI: > 100 µM
IGROV1 ovarian
  TGI: > 100 µM
K-562 leukemia
  TGI: > 100 µM
KM12 colon
  TGI: > 100 µM
LOX IMVI melanoma
  TGI: > 100 µM
M14 melanoma
  TGI: > 100 µM
MALME-3M melanoma
  TGI: > 100 µM
MCF7 breast
  TGI: > 100 µM
MDA-MB-231 breast
  TGI: > 100 µM
MDA-MB-435
  TGI: > 100 µM
MDA-N
  TGI: > 100 µM
MOLT-4 leukemia
  TGI: > 100 µM
NCI-H226 lung
  TGI: > 100 µM
NCI-H23 lung
  TGI: > 100 µM
NCI-H460 lung
  TGI: > 100 µM
NCI-H522 lung
  TGI: > 100 µM
NCI/ADR-RES ovarian
  TGI: > 100 µM
OVCAR-3 ovarian
  TGI: > 100 µM
OVCAR-4 ovarian
  TGI: > 100 µM
OVCAR-5 ovarian
  TGI: > 100 µM
OVCAR-8 ovarian
  TGI: > 100 µM
PC-3 prostate
  TGI: > 100 µM
RPMI-8226 leukemia
  TGI: > 100 µM
SF-268 CNS
  TGI: > 100 µM
SF-295 CNS
  TGI: > 100 µM
SF-539 CNS
  TGI: > 100 µM
SK-MEL-2 melanoma
  TGI: > 100 µM
SK-MEL-5 melanoma
  TGI: > 100 µM
SK-OV-3 ovarian
  TGI: > 100 µM
SN12C renal
  TGI: > 100 µM
SNB-19 CNS
  TGI: > 100 µM
SNB-75 CNS
  TGI: > 100 µM
SR leukemia
  TGI: > 100 µM
SW-620 colon
  TGI: > 100 µM
T-47D breast
  TGI: > 100 µM
TK-10 renal
  TGI: > 100 µM
U251 CNS
  TGI: > 100 µM
UACC-257 melanoma
  TGI: > 100 µM
UACC-62 melanoma
  TGI: > 100 µM
UO-31 renal
  TGI: > 100 µM

## O=C(O)CCN1CCN(CCC(=O)O)CCN(CCC(=O)O)CC1
786-0 renal
  TGI: > 100 µM
A498 renal
  TGI: > 100 µM
A549 NSCLC
  TGI: > 100 µM
ACHN renal
  TGI: > 100 µM
BT-549 breast
  TGI: > 100 µM
CAKI-1 renal
  TGI: > 100 µM
CCRF-CEM leukemia
  TGI: > 100 µM
COLO 205 colon
  TGI: > 100 µM
DU-145 prostate
  TGI: > 100 µM
EKVX NSCLC
  TGI: > 100 µM
HCC-2998 colon
  TGI: > 100 µM
HCT-116 colon
  TGI: > 100 µM
HCT-15 colon
  TGI: > 100 µM
HL-60(TB) leukemia
  TGI: 89.3 µM
HOP-62 NSCLC
  TGI: > 100 µM
HOP-92 NSCLC
  TGI: > 100 µM
HS 578T breast
  TGI: > 100 µM
HT29 colon
  TGI: > 100 µM
IGROV1 ovarian
  TGI: > 100 µM
K-562 leukemia
  TGI: > 100 µM
KM12 colon
  TGI: > 100 µM
LOX IMVI melanoma
  TGI: > 100 µM
M14 melanoma
  TGI: > 100 µM
MALME-3M melanoma
  TGI: > 100 µM
MCF7 breast
  TGI: > 100 µM
MDA-MB-231 breast
  TGI: > 100 µM
MDA-MB-435
  TGI: > 100 µM
MDA-N
  TGI: > 100 µM
MOLT-4 leukemia
  TGI: > 100 µM
NCI-H226 lung
  TGI: > 100 µM
NCI-H460 lung
  TGI: > 100 µM
NCI-H522 lung
  TGI: > 100 µM
NCI/ADR-RES ovarian
  TGI: > 100 µM
OVCAR-3 ovarian
  TGI: > 100 µM
OVCAR-4 ovarian
  TGI: > 100 µM
OVCAR-5 ovarian
  TGI: > 100 µM
OVCAR-8 ovarian
  TGI: > 100 µM
PC-3 prostate
  TGI: > 100 µM
RPMI-8226 leukemia
  TGI: > 100 µM
SF-295 CNS
  TGI: > 100 µM
SF-539 CNS
  TGI: > 100 µM
SK-MEL-2 melanoma
  TGI: > 100 µM
SK-MEL-28 melanoma
  TGI: > 100 µM
SK-MEL-5 melanoma
  TGI: > 100 µM
SK-OV-3 ovarian
  TGI: > 100 µM
SN12C renal
  TGI: > 100 µM
SNB-19 CNS
  TGI: > 100 µM
SNB-75 CNS
  TGI: > 100 µM
SR leukemia
  TGI: > 100 µM
SW-620 colon
  TGI: > 100 µM
T-47D breast
  TGI: > 100 µM
TK-10 renal
  TGI: > 100 µM
U251 CNS
  TGI: > 100 µM
UACC-257 melanoma
  TGI: > 100 µM
UACC-62 melanoma
  TGI: > 100 µM
UO-31 renal
  TGI: > 100 µM
